Test results as given in BindingDB's records for doi:10.1016/j.bioorg.2015.12.005 (Birla Institute of Technology, 2016).

Biological target: Reverse transcriptase protein (Human immunodeficiency virus 1, UniProt Q9WJQ1)
Assay: In-vitro HIV-1 RT Screening
Protocol: The reaction mixture was set with template primer complex, RT enzyme and dNTPs in a lysis buffer with or without inhibitors. The reaction mixture was incubated at 37 °C for 1 h and then transferred to streptavidine-coated microtitre plate (MTP). The biotin-labeled dNTPs that were incorporated in the template due to activity of RT, bound to streptavidine. The unbound dNTPs were washed using wash buffer and anti-DIG-POD was added to the MTP. The DIG-labeled dNTPs incorporated in the template were bound to an anti-DIG-POD antibody. The unbound anti-DIG-POD was washed again with washing buffer and the peroxide substrate (ABST) was added to the MTP. A colored reaction product was produced during the cleavage of the substrate catalyzed by a peroxide enzyme.

SMILES	IC50 [µM]
CCOC(=O)c1ccc(NC(=O)OC(CN2CCCc3ccccc32)c2ccc(Cl)cc2)cc1 (configuration not stated) [Ethyl4-((1-(4-chlorophenyl)-2-(3,4-dihydroquinolin-1(2H)-yl)ethoxy)carbonylamino) benzoate (6l)]	12.3
CCOC(=O)c1ccccc1NC(=O)OC(CN1CCCc2ccccc21)c1ccc(Cl)cc1 (configuration not stated) [Ethyl 2-((1-(4-chlorophenyl)-2-(3,4-dihydroquinolin-1(2H)-yl)ethoxy)carbonylamino) benzoate (6k)]	39
O=C(Nc1ccc([N+](=O)[O-])cc1)OC(CN1CCCc2ccccc21)c1ccc(Cl)cc1 (configuration not stated) [1-(4-chlorophenyl)-2-(3,4-dihydroquinolin-1(2H)-yl)ethyl 4-nitrophenylcarbamate (6j)]	5.42
Cc1ccc(NC(=O)OC(CN2CCCc3ccccc32)c2ccc(Cl)cc2)cc1 (configuration not stated) [1-(4-chlorophenyl)-2-(3,4-dihydroquinolin-1(2H)-yl)ethyl p-tolylcarbamate (6d)]	83.6
O=C(Nc1ccc(Cl)cc1)OC(CN1CCCc2ccccc21)c1ccc(Cl)cc1 (configuration not stated) [1-(4-chlorophenyl)-2-(3,4-dihydroquinolin-1(2H)-yl)ethyl 4-chlorophenylcarbamate (6h)]	23.8
O=C(Nc1ccccc1F)OC(CN1CCCc2ccccc21)c1ccc(Cl)cc1 (configuration not stated) [1-(4-chlorophenyl)-2-(3,4-dihydroquinolin-1(2H)-yl)ethyl 2-fluorophenylcarbamate (6e)]	90.3

Further molecules by falling IC50, results first:

IC50 [µM]	SMILES
72.1	O=C(Nc1cccc(F)c1)OC(CN1CCCc2ccccc21)c1ccc(Cl)cc1 (configuration not stated) [1-(4-chlorophenyl)-2-(3,4-dihydroquinolin-1(2H)-yl)ethyl 3-fluorophenylcarbamate (6f)]
68.3	Cc1cccc(NC(=O)OC(CN2CCCc3ccccc32)c2ccc(Cl)cc2)c1 (configuration not stated) [1-(4-chlorophenyl)-2-(3,4-dihydroquinolin-1(2H)-yl)ethyl m-tolylcarbamate (6c)]
48.6	O=C(Nc1ccc(F)cc1)OC(CN1CCCc2ccccc21)c1ccc(Cl)cc1 (configuration not stated) [1-(4-chlorophenyl)-2-(3,4-dihydroquinolin-1(2H)-yl)ethyl 4-fluorophenylcarbamate (6g)]
37	O=C(Nc1ccccc1)OC(CN1CCCc2ccccc21)c1ccc(Cl)cc1 (configuration not stated) [1-(4-chlorophenyl)-2-(3,4-dihydroquinolin-1(2H)-yl)ethyl phenylcarbamate (6a)]
14.9	O=C(Nc1cccc([N+](=O)[O-])c1)OC(CN1CCCc2ccccc21)c1ccc(Cl)cc1 (configuration not stated) [1-(4-chlorophenyl)-2-(3,4-dihydroquinolin-1(2H)-yl)ethyl 3-nitrophenylcarbamate (6i)]
8.12	Cc1ccccc1NC(=O)OC(CN1CCCc2ccccc21)c1ccc(Cl)cc1 (configuration not stated) [1-(4-chlorophenyl)-2-(3,4-dihydroquinolin-1(2H)-yl)ethyl o-tolylcarbamate (6b)]
